Measured values published in ChEMBL document CHEMBL1201862, “PubChem BioAssay data set” (2004).
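Five compound concentrations were applied to cells in 96-well plates for 48 hours; endpoints were derived by simple linear interpolation of the resulting dose-response curve. GI50 is the concentration that inhibits growth by half.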 Activity calls are given as the source filed them. Rule as the data show it: active = GI50 up to about 1.1 µM and inactive = higher.

How the values were obtained:
Test in all cases: NCI tumour cell line growth inhibition, 48 h
LXFL 529 = test system: LXFL 529
DLD-1 = test system: DLD-1
KM-20L2 = test system: KM-20L2
HOP-18 = test system: HOP-18
DMS-273 = test system: DMS-273
M19-MEL = test system: M19-MEL
DMS-114 = test system: DMS-114
RXF 631 = test system: RXF 631
XF498 = test system: XF498

Measured: GI50

c1ccc(-c2csc3ncn4cnnc4c23)cc1
inactive: LXFL 529 92.9 µM | DLD-1 82.2 µM | KM-20L2 > 100 µM | HOP-18 52 µM | DMS-273 72.8 µM | M19-MEL > 100 µM | DMS-114 57.9 µM | RXF 631 95.7 µM

CCCCCCCCCC(=O)CC(=O)c1c(O)cccc1O
inactive: LXFL 529 38.8 µM | DLD-1 39.5 µM | KM-20L2 33.8 µM | HOP-18 25.4 µM | DMS-273 20.8 µM | M19-MEL 38.5 µM | DMS-114 30.1 µM | XF498 15.3 µM

CN(N=O)C(=O)NC(CCCCNC(=O)OCc1ccccc1)C(=O)OCc1ccccc1 (centres undefined)
inactive: LXFL 529 28.5 µM | DLD-1 33.8 µM | KM-20L2 > 100 µM | DMS-273 33.2 µM | M19-MEL 27.1 µM | DMS-114 29 µM | RXF 631 19.9 µM | XF498 13.2 µM

COc1nc2c(nc(N)n2C2OC(CO)C(O)C(O)C2O)c(=O)n1C (centres undefined)
inactive: LXFL 529 > 100 µM | DLD-1 > 100 µM | KM-20L2 > 100 µM | HOP-18 > 100 µM | M19-MEL > 100 µM | DMS-114 > 100 µM | RXF 631 > 100 µM | XF498 75.3 µM

C=C1C(=O)OC2/C=C(\COC(C)=O)CCC(OC(C)=O)C3=CC(OC3=O)C12 (centres undefined)
inactive: LXFL 529 1.67 µM | DLD-1 2.33 µM | KM-20L2 6.98 µM | DMS-273 6.81 µM | DMS-114 1.47 µM | RXF 631 8.13 µM | XF498 2.39 µM

Oc1c(-c2ccccc2)nc2ccccn12
inactive: LXFL 529 > 100 µM | DLD-1 > 100 µM | KM-20L2 > 100 µM | DMS-273 > 100 µM | M19-MEL > 100 µM | DMS-114 > 100 µM | XF498 > 100 µM

O=C1O[C@@H](c2ccc3c(c2)OCO3)C2C(=O)O[C@@H](c3ccc4c(c3)OCO4)C12 (some centres undefined)
inactive: KM-20L2 > 100 µM | HOP-18 > 100 µM | DMS-273 > 100 µM | M19-MEL > 100 µM | DMS-114 > 100 µM | RXF 631 > 100 µM | XF498 25.8 µM

Cc1cccc(NC(=O)CSc2nnc(-c3ccc(/N=C\c4ccc(Cl)cc4)cc3)o2)c1
inactive: LXFL 529 > 100 µM | KM-20L2 > 100 µM | HOP-18 > 100 µM | DMS-273 > 100 µM | M19-MEL > 100 µM | DMS-114 > 100 µM | XF498 > 100 µM

Nc1nccc2c1ncn2C1C=C(CO)C(O)C1O (centres undefined)
inactive: LXFL 529 > 89.1 µM | DLD-1 63.4 µM | KM-20L2 > 87.1 µM | HOP-18 > 96.6 µM | DMS-273 25.6 µM | M19-MEL 62.5 µM | DMS-114 13.9 µM | RXF 631 83.6 µM | XF498 > 46 µM

CC1=C(C(=O)Nc2ccccc2)C(c2ccc(C3C(C(=O)Nc4ccccc4)=C(C)NC(C)=C3C(=O)Nc3ccccc3)cc2)C(C(=O)Nc2ccccc2)=C(C)N1
inactive: LXFL 529 2.1 µM | DLD-1 2.38 µM | KM-20L2 2.04 µM | HOP-18 8.22 µM | DMS-273 2.62 µM | M19-MEL 3.5 µM | DMS-114 3.83 µM | XF498 7.36 µM

CNC(=S)/N=C(\N)N(C)C
inactive: LXFL 529 > 100 µM | DLD-1 > 100 µM | KM-20L2 > 100 µM | HOP-18 > 100 µM | DMS-273 > 100 µM | M19-MEL > 100 µM | DMS-114 > 100 µM | XF498 > 100 µM

CCCCCCCCCCCCOC(=S)NCCCC
inactive: LXFL 529 28.1 µM | DLD-1 29.4 µM | KM-20L2 18.7 µM | HOP-18 28.1 µM | DMS-273 18.3 µM | M19-MEL 32.7 µM | DMS-114 19.7 µM | RXF 631 20.7 µM | XF498 16.4 µM

CC(C)C(=O)N1Cc2cc(Cl)cc(Cl)c2OC(=O)c2ccccc21
inactive: LXFL 529 18.3 µM | DLD-1 29.9 µM | KM-20L2 23.7 µM | HOP-18 25.6 µM | DMS-273 38.7 µM | DMS-114 30.1 µM | RXF 631 40.3 µM

COc1ccccc1C1C(Cl)C(=O)N1NC(=O)Cc1ccccc1 (centres undefined)
inactive: LXFL 529 > 100 µM | KM-20L2 75.9 µM | HOP-18 30.7 µM | DMS-273 43.3 µM | M19-MEL > 100 µM | DMS-114 37.5 µM | XF498 > 100 µM

CCOC(=O)NC(=O)c1cn(CCCCCCCCCCC(=O)NCCCN2CCN(CCCNC(=O)CCCCCCCCCCn3cc(C(=O)NC(=O)OCC)c(=O)[nH]c3=O)CC2)c(=O)[nH]c1=O
inactive: LXFL 529 > 100 µM | DLD-1 > 100 µM | KM-20L2 > 100 µM | HOP-18 > 100 µM | DMS-273 > 100 µM | M19-MEL > 100 µM | DMS-114 > 100 µM | XF498 > 100 µM

CC1=C(/C=C/C(C)=C/C2CC(N(C)C)=CC(=O)O2)C(C)(C)CCC1 (centres undefined)
inactive: LXFL 529 11.7 µM | DLD-1 15.3 µM | HOP-18 13.6 µM | DMS-273 13.4 µM | M19-MEL 14.3 µM | DMS-114 10.8 µM | RXF 631 13.1 µM | XF498 12.4 µM

Nc1nc(-c2ccc(Cl)c([N+](=O)[O-])c2)cs1
inactive: LXFL 529 > 100 µM | DLD-1 > 100 µM | KM-20L2 > 100 µM | HOP-18 35.4 µM | DMS-273 > 100 µM | M19-MEL > 100 µM | DMS-114 64.7 µM | RXF 631 > 100 µM | XF498 27.5 µM

COc1ccccc1NC(=O)C1=C(C)NC(C)=C(C(=O)Nc2ccccc2OC)C1c1cccc2c1OCO2
inactive: LXFL 529 69.2 µM | DLD-1 > 100 µM | KM-20L2 > 100 µM | HOP-18 > 100 µM | DMS-273 > 100 µM | M19-MEL > 100 µM | DMS-114 77.3 µM | RXF 631 > 100 µM

Cc1c(C)c(CC(=O)N2CC2)c(C)c(C)c1CC(=O)N1CC1
inactive: LXFL 529 14.1 µM | DLD-1 17.5 µM | KM-20L2 17.3 µM | HOP-18 28.4 µM | DMS-273 2.18 µM | M19-MEL 12.9 µM | DMS-114 11.5 µM

COC(=O)C(CCC1(C)OCCO1)=[N+]=[N-]
inactive: LXFL 529 > 100 µM | DLD-1 > 100 µM | KM-20L2 > 100 µM | HOP-18 > 100 µM | DMS-273 > 100 µM | DMS-114 > 100 µM | RXF 631 > 100 µM | XF498 > 100 µM

COc1c(OC(C)=O)c(OC(C)=O)cc2c1-c1ccc(SC)c(=O)cc1C(NC(C)=O)CC2 (centres undefined)
active: LXFL 529 0.368 µM | DLD-1 0.908 µM | KM-20L2 0.7 µM | DMS-273 0.895 µM | M19-MEL 0.57 µM | XF498 1.04 µM
inactive: HOP-18 > 100 µM

CCOC(=O)C1=C(C)N(NC(=O)Nc2ccccc2)C(=O)C1=P(c1ccccc1)(c1ccccc1)c1ccccc1
inactive: LXFL 529 35.2 µM | DLD-1 33.6 µM | KM-20L2 40.6 µM | HOP-18 58.1 µM | DMS-273 40.6 µM | M19-MEL 32.6 µM | DMS-114 32.2 µM | XF498 31.8 µM

CCOC(=O)N(c1ccccc1)N(CC)C(=O)/C(C)=N/Nc1ccc([N+](=O)[O-])cc1
inactive: LXFL 529 16.6 µM | DLD-1 15.4 µM | KM-20L2 17.1 µM | HOP-18 19.7 µM | DMS-273 15.6 µM | M19-MEL 17.5 µM | DMS-114 17.9 µM | XF498 17.9 µM

Nc1ccc(/N=N/c2ccc(-c3ccc(/N=N/c4c(S(=O)(=O)O)cc5cc(S(=O)(=O)O)c(/N=N/c6ccc([N+](=O)[O-])cc6)c(N)c5c4O)cc3)cc2)c2cc(S(=O)(=O)O)ccc12
inactive: LXFL 529 > 100 µM | DLD-1 > 100 µM | KM-20L2 > 100 µM | DMS-273 > 100 µM | M19-MEL > 100 µM | XF498 > 100 µM

c1cc(C2O[C@H]3CCCN3[C@@H]2c2ccncc2)ccn1 (some centres undefined)
inactive: LXFL 529 > 100 µM | DLD-1 > 100 µM | KM-20L2 > 100 µM | DMS-273 > 100 µM | M19-MEL > 100 µM | DMS-114 > 100 µM | XF498 > 100 µM

COc1cc(/C=C(\C#N)C(N)=C(C#N)C#N)cc(O)c1O
inactive: LXFL 529 > 100 µM | DLD-1 > 100 µM | KM-20L2 > 100 µM | DMS-273 > 100 µM | M19-MEL > 100 µM | DMS-114 47 µM | XF498 > 100 µM

COc1cc([C@@H]2c3cc4c(c(O)c3C[C@H]3COC(=O)[C@@H]32)OCO4)cc(OC)c1O
active: LXFL 529 0.00257 µM | HOP-18 < 0.02 µM | DMS-273 < 0.02 µM | M19-MEL 0.237 µM | DMS-114 < 0.02 µM
